For the experiment, the target named is T1, PE-labeled human PD-L1-Ig binding to Jurkat cell line over-expressing human PD-1 (Jurkat-PD-1) (Homo sapiens, UniProt Q15116).
T1 construct: expressed in transfected cells; host or cells: Jurkat
The experiment in a line: Jurkat-PD-1 Cell Binding High-Content Screening Assay (CBA): Method 1. To be noted: Jurkat-hPD-1 cells, PE-labeled PD-L1-Ig 20 nM final; read-out: Jurkat HPDL1 PD1 IC50 (uM) (Method 1).

Numbered stars: 1 amine (or outer) side, 2 acyl side, 3 side chain; on linkers, the order of the positions; unused ones are H or OH. Bridge positions count the residues as written; N and C are the ends. Square brackets hold non-standard residues; d marks the D form. Peptide text beside a SMILES is read from it. * marks the point of attachment. ξ: configuration not given here. Phe(3-CF3) = N[C@@H](Cc1cccc(C(F)(F)F)c1)C(=O)O; Ala(morpholin-4-yl) = N[C@@H](CN1CCOCC1)C(=O)O; Phe(4-COOH) = N[C@@H](Cc1ccc(C(=O)O)cc1)C(=O)O; Phe(2,4-Cl2) = N[C@@H](Cc1ccc(Cl)cc1Cl)C(=O)O; Bip = N[C@@H](Cc1ccc(-c2ccccc2)cc1)C(=O)O; X50 = C[C@@H](C(=O)[*:2])N(CCCCCN)[*:1]; Phe(3-Me) = Cc1cccc(C[C@H](N)C(=O)O)c1; Val(3-OH) = CC(C)(O)[C@H](N)C(=O)O; aIle = CC[C@@H](C)[C@H](N)C(=O)O; 3Pal = N[C@@H](Cc1cccnc1)C(=O)O; 4Pal = N[C@@H](Cc1ccncc1)C(=O)O; Cha = N[C@@H](CC1CCCCC1)C(=O)O; Cit = NC(=O)NCCC[C@H](N)C(=O)O; Ile(3ξ) = CCC(C)[C@H](N)C(=O)O; Thr(3ξ) = CC(O)[C@H](N)C(=O)O; dDab = NCC[C@@H](N)C(=O)O; dNva = CCC[C@@H](N)C(=O)O; Carboxymethyl = O=C(O)C*; NMeA = CN[C@@H](C)C(=O)O; Dab = NCC[C@H](N)C(=O)O; Dap = NC[C@H](N)C(=O)O; ξV = CC(C)C(N)C(=O)O

T1 sequence (Q15116 25-288): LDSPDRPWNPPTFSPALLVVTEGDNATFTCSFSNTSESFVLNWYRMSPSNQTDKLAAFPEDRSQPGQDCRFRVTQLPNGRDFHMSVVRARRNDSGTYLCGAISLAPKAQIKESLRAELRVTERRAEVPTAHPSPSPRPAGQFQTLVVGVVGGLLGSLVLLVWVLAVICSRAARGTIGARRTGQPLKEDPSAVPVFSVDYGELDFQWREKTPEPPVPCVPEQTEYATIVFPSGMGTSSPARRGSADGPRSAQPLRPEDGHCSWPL

For `CC(C)C[C@@H]1NC(=O)[C@H](C)NC(=O)[C@@H](C)NC(=O)[C@H](C)N(C)C(=O)[C@H](CCC(=O)O)NC(=O)[C@H](Cc2ccc(-c3ccccc3)cc2)NC(=O)[C@H](CC(C)C)NC(=O)[C@H](Cc2c[nH]c3ccccc23)NC(=O)[C@H](CC(=O)O)NC(=O)[C@H](Cc2ccc(C(=O)O)cc2)NC(=O)[C@H](Cc2cccnc2)NC(=O)CSC[C@@H](C(=O)N[C@@H](C)C(N)=O)NC(=O)[C@H](CO)NC(=O)[C@H](C(C)C)NC1=O` [Compound 1786] ({CH2CO}-[3Pal][Phe(4-COOH)]DWL[Bip]E[NMeA][dA]ALVSCA-NH2; thioether N-14), the IC50 (commonly the concentration needed to halve the response being measured) was determined as 0.1 µM. On to `CC(C)C[C@@H]1NC(=O)[C@H](CCN)NC(=O)[C@@H](CC(C)C)NC(=O)[C@H](C)N(C)C(=O)[C@H](CCCNC(N)=O)NC(=O)[C@H](Cc2ccc(-c3ccccc3)cc2)NC(=O)[C@H](C(C)C)NC(=O)[C@H](Cc2c[nH]c3ccccc23)NC(=O)[C@H](CC(=O)O)NC(=O)[C@H](Cc2ccc(O)cc2)NC(=O)[C@H](CC(N)=O)NC(=O)CSC[C@@H](C(=O)N[C@@H](CCC(=O)O)C(N)=O)NC(=O)[C@H](CO)NC(=O)[C@H](C(C)C)NC1=O` [Compound 1233] ({CH2CO}-NYDWV[Bip][Cit][NMeA][dL][Dab]LVSCE-NH2; thioether N-14), for which the IC50 was 0.05 µM.

Consider `CCC(C)[C@@H]1NC(=O)[C@H](Cc2ccc(-c3ccccc3)cc2)NC(=O)[C@H](C(C)C)NC(=O)[C@H](Cc2c[nH]c3ccccc23)NC(=O)[C@H](CC(=O)O)NC(=O)[C@H](Cc2ccc(O)cc2)NC(=O)[C@H](CC(N)=O)NC(=O)CSC[C@@H](C(=O)N[C@@H](CCCCN)C(N)=O)NC(=O)[C@H](C(C)O)NC(=O)[C@H](C(C)C)NC(=O)[C@H](CC2CCCCC2)NC(=O)[C@H](CCN)NC(=O)[C@@H](CC(C)C)NC(=O)[C@H](C)N(C)C1=O` (stereo partly drawn) [Compound 2079] ({CH2CO}-NYDWV[Bip][Ile(3ξ)][NMeA][dL][Dab][Cha]V[Thr(3ξ)]CK-NH2; thioether N-14), for which the concentration for half-maximal inhibition (IC50) stood at 0.02 µM. Consider `Cc1cccc(C[C@@H]2NC(=O)[C@H](CC(=O)O)NC(=O)[C@H](Cc3ccc(C(=O)O)cc3)NC(=O)[C@H](CN)NC(=O)CSC[C@@H](C(=O)N[C@@H](C)C(N)=O)NC(=O)[C@H]([C@@H](C)O)NC(=O)[C@H](C(C)C)NC(=O)[C@H](CC(C)C)NC(=O)[C@H](CCN)NC(=O)[C@@H](CC(C)C)NC(=O)[C@H](C)N(C)C(=O)[C@H](CCCNC(=N)N)NC(=O)[C@H](Cc3ccc(-c4ccccc4)cc3)NC(=O)[C@H](C(C)C)NC2=O)c1` [Compound 1457] ({CH2CO}-[Dap][Phe(4-COOH)]D[Phe(3-Me)]V[Bip]R[NMeA][dL][Dab]LVTCA-NH2; thioether N-14), for which the IC50 was determined as 0.01 µM. Turning to `CCC[C@H]1NC(=O)[C@H](C)N(C)C(=O)[C@H](CCCNC(=N)N)NC(=O)[C@H](Cc2ccc(-c3ccccc3)cc2)NC(=O)[C@H](C(C)C)NC(=O)[C@H](Cc2c[nH]c3ccccc23)NC(=O)[C@H](CC(=O)O)NC(=O)[C@H](Cc2ccc(O)cc2)NC(=O)[C@H](Cc2ccccc2)NC(=O)CSC[C@@H](C(=O)N[C@@H](C)C(N)=O)NC(=O)[C@H]([C@@H](C)O)NC(=O)[C@H](C(C)C)NC(=O)[C@H](CC(C)C)NC(=O)[C@H](CCCNC(=N)N)NC1=O` [Compound 1064] ({CH2CO}-FYDWV[Bip]R[NMeA][dNva]RLVTCA-NH2; thioether N-14), the IC50 was 0.1 µM.

As for `Cc1cccc(C[C@@H]2NC(=O)[C@H](CC(=O)O)NC(=O)[C@H](Cc3ccc(OCC(=O)O)cc3)NC(=O)[C@H](Cc3cnc[nH]3)NC(=O)CSC[C@@H](C(=O)N[C@H](C)C(N)=O)NC(=O)[C@H](CO)NC(=O)[C@H](C(C)(C)O)NC(=O)[C@H](CC3CCCCC3)NC(=O)[C@H](CCN)NC(=O)[C@@H](CC(C)C)NC(=O)[C@H](C)N(C)C(=O)[C@H](Cc3ccc(OCC(=O)O)cc3)NC(=O)[C@H](Cc3ccc(-c4ccccc4)cc3)NC(=O)[C@H](Cc3ccc(C(=O)O)cc3)NC2=O)c1` [Compound 2182] ({CH2CO}-HY(Carboxymethyl)D[Phe(3-Me)][Phe(4-COOH)][Bip]Y(Carboxymethyl)[NMeA][dL][Dab][Cha][Val(3-OH)]SC[dA]-NH2; thioether N-14), the half-inhibitory concentration (IC50) is 0.09 µM. On to `CC(C)C[C@@H]1NC(=O)[C@H](CCN)NC(=O)[C@@H](CC(C)C)NC(=O)[C@H](C)N(CCCCCN)C(=O)[C@H](CCCNC(=N)N)NC(=O)[C@H](Cc2ccc(-c3ccccc3)cc2)NC(=O)[C@H](C(C)C)NC(=O)[C@H](Cc2c[nH]c3ccccc23)NC(=O)[C@H](CC(=O)O)NC(=O)[C@H](Cc2ccc(O)cc2)NC(=O)[C@H](CC(N)=O)NC(=O)CSC[C@@H](C(=O)N[C@@H](C)C(N)=O)NC(=O)[C@H]([C@@H](C)O)NC(=O)[C@H](C(C)C)NC1=O` [Compound 1257] ({CH2CO}-NYDWV[Bip]R[X50][dL][Dab]LVTCA-NH2; thioether N-14), for which the IC50 amounted to 0.13 µM. Turning to `CC(C)C[C@@H]1NC(=O)[C@H](Cc2c[nH]c3ccccc23)NC(=O)[C@H](CC(=O)O)NC(=O)[C@H](Cc2ccc(O)cc2)NC(=O)[C@H](Cc2ccccc2)NC(=O)CSC[C@@H](C(=O)N[C@@H](C)C(N)=O)NC(=O)[C@H](CO)NC(=O)[C@H](CCN)NC(=O)[C@H](CC(C)C)NC(=O)[C@H](CC(N)=O)NC(=O)[C@@H](C)NC(=O)[C@H](C)N(C)C(=O)[C@H](C(C)C)NC(=O)[C@H](Cc2ccc(-c3ccccc3)cc2)NC1=O` [Compound 1531] ({CH2CO}-FYDWL[Bip]V[NMeA][dA]NL[Dab]SCA-NH2; thioether N-14), the half-inhibitory concentration (IC50) amounted to 0.11 µM. In the case of `Cc1cccc(C[C@@H]2NC(=O)[C@H](CC(=O)O)NC(=O)[C@H](Cc3ccc(OCC(=O)O)cc3)NC(=O)[C@H]([C@@H](C)O)NC(=O)CSC[C@@H](C(N)=O)NC(=O)[C@H](CC(=O)O)NC(=O)[C@H](C(C)C)NC(=O)[C@H](CC3CCCCC3)NC(=O)[C@H](CC(N)=O)NC(=O)[C@@H](CC(C)C)NC(=O)[C@H](C)N(C)C(=O)[C@H](Cc3ccc(OCC(=O)O)cc3)NC(=O)[C@H](Cc3ccc(-c4ccccc4)cc3)NC(=O)[C@H](Cc3ccc(OCC(=O)O)cc3)NC2=O)c1` [Compound 1676] ({CH2CO}-TY(Carboxymethyl)D[Phe(3-Me)]Y(Carboxymethyl)[Bip]Y(Carboxymethyl)[NMeA][dL]N[Cha]VDC-NH2; thioether N-14), the concentration for half-maximal inhibition (IC50) was determined as 0.24 µM. As to `CC[C@H](C)[C@@H]1NC(=O)[C@H](Cc2ccc(-c3ccccc3)cc2)NC(=O)[C@H](C(C)C)NC(=O)[C@H](Cc2c[nH]c3ccccc23)NC(=O)[C@H](CC(=O)O)NC(=O)[C@H](Cc2ccc(O)cc2)NC(=O)[C@H](Cc2ccccc2)NC(=O)CSC[C@@H](C(=O)N[C@@H](C)C(N)=O)NC(=O)[C@H]([C@@H](C)O)NC(=O)[C@H](C(C)C)NC(=O)[C@H](CC(C)C)NC(=O)[C@H](CCN)NC(=O)[C@@H](CC(C)C)NC(=O)[C@H](C)N(C)C1=O` [Compound 1393] ({CH2CO}-FYDWV[Bip]I[NMeA][dL][Dab]LVTCA-NH2; thioether N-14), the IC50 worked out at 0.03 µM.

Turning to `CC[C@H](C)[C@@H]1NC(=O)[C@H](Cc2ccc(-c3ccccc3)cc2)NC(=O)[C@H](C(C)C)NC(=O)[C@H](Cc2c[nH]c3ccccc23)NC(=O)[C@H](CC(=O)O)NC(=O)[C@H](Cc2ccc(O)cc2)NC(=O)[C@H](CN)NC(=O)CSC[C@@H](C(=O)N[C@@H](C)C(N)=O)NC(=O)[C@H]([C@@H](C)O)NC(=O)[C@H](C(C)C)NC(=O)[C@H](CC(C)C)NC(=O)[C@H](CCCNC(=N)N)NC(=O)[C@@H](CC(C)C)NC(=O)[C@H](C)N(C)C1=O` [Compound 1488] ({CH2CO}-[Dap]YDWV[Bip]I[NMeA][dL]RLVTCA-NH2; thioether N-14), the half-maximal inhibitory concentration (IC50) is 0.04 µM. In the case of `CC[C@@H](C)[C@@H]1NC(=O)[C@H](Cc2ccc(-c3ccccc3)cc2)NC(=O)[C@H](CC(C)C)NC(=O)[C@H](Cc2c[nH]c3ccccc23)NC(=O)[C@H](CC(=O)O)NC(=O)[C@H](Cc2ccc(C(=O)O)cc2)NC(=O)[C@H](Cc2ccc(OCC(=O)O)cc2)NC(=O)CSC[C@@H](C(=O)N[C@@H](CCCCN)C(N)=O)NC(=O)[C@H](CC(N)=O)NC(=O)C(C(C)C)NC(=O)[C@H](CC(C)C)NC(=O)[C@H](CC(N)=O)NC(=O)[C@@H](CC(C)C)NC(=O)[C@H](C)N(C)C1=O` (stereo partly drawn) [Compound 2109] ({CH2CO}-Y(Carboxymethyl)[Phe(4-COOH)]DWL[Bip][aIle][NMeA][dL]NL[ξV]NCK-NH2; thioether N-14) it was 0.2 µM. For the molecule `CC(C)C[C@@H]1NC(=O)[C@H](Cc2c[nH]c3ccccc23)NC(=O)[C@H](CC(=O)O)NC(=O)[C@H](Cc2ccc(Cl)cc2Cl)NC(=O)[C@H](Cc2ccccc2)NC(=O)CSC[C@@H](C(=O)N[C@@H](C)C(N)=O)NC(=O)[C@H](CO)NC(=O)[C@H](C(C)C)NC(=O)[C@H](CC(C)C)NC(=O)[C@H](CC(N)=O)NC(=O)[C@@H](C)NC(=O)[C@H](C)N(C)C(=O)[C@H](C(C)C)NC(=O)[C@H](Cc2ccc(-c3ccccc3)cc2)NC1=O` [Compound 1810] ({CH2CO}-F[Phe(2,4-Cl2)]DWL[Bip]V[NMeA][dA]NLVSCA-NH2; thioether N-14), the half-maximal inhibitory concentration (IC50) is 0.28 µM. On to `CC(C)C[C@@H]1NC(=O)[C@H](Cc2c[nH]c3ccccc23)NC(=O)[C@H](CC(=O)O)NC(=O)[C@H](Cc2ccncc2)NC(=O)[C@H](Cc2ccc(OCC(=O)O)cc2)NC(=O)CSC[C@@H](C(=O)N[C@H](CCN)C(N)=O)NC(=O)[C@H]([C@@H](C)O)NC(=O)[C@H](C(C)C)NC(=O)[C@H](CC2CCCCC2)NC(=O)[C@H](CCN)NC(=O)[C@@H](CC(C)C)NC(=O)[C@H](C)N(C)C(=O)[C@H](C(C)C)NC(=O)[C@H](Cc2ccc(-c3ccccc3)cc2)NC1=O` [Compound 1904] ({CH2CO}-Y(Carboxymethyl)[4Pal]DWL[Bip]V[NMeA][dL][Dab][Cha]VTC[dDab]-NH2; thioether N-14), for which the half-inhibitory concentration (IC50) amounted to 0.01 µM.

Consider `CC(C)[C@@H]1NC(=O)[C@H](CC2CCCCC2)NC(=O)[C@H](CCN)NC(=O)CNC(=O)[C@H](C)N(C)C(=O)[C@H](Cc2ccc(C(=O)O)cc2)NC(=O)[C@H](Cc2ccc(-c3ccccc3)cc2)NC(=O)[C@H](Cc2ccc(C(=O)O)cc2)NC(=O)[C@H](Cc2cccc(C(F)(F)F)c2)NC(=O)[C@H](CC(=O)O)NC(=O)[C@H](Cc2ccc(C(=O)O)cc2)NC(=O)[C@H](CN2CCOCC2)NC(=O)CSC[C@@H](C(=O)N[C@@H](CCN)C(N)=O)NC(=O)[C@H](CCC(=O)O)NC1=O` [Example 2286] ({CH2CO}-[Ala(morpholin-4-yl)][Phe(4-COOH)]D[Phe(3-CF3)][Phe(4-COOH)][Bip][Phe(4-COOH)][NMeA]G[Dab][Cha]VEC[Dab]-NH2; thioether N-14), for which the 50% inhibitory concentration (IC50) is 0.08 µM.

Source of the values: patent US20240409585A1, “MACROCYCLIC IMMUNOMODULATORS” (priority 2021, published 2024).
